Experimental findings from ChEMBL document CHEMBL1130565, “Development of the new potent non-peptide gpIIb/IIIa antagonist NSL-95301 by utilizing combinatorial technique” (Bioorg Med Chem Lett, 1997) are described below.

Molecules are shown by their SMILES.

As usually defined, the IC50 is the midpoint of a concentration-inhibition curve. High values mean lower potency, low ones higher potency.

For the first assay, the species on record is Homo sapiens. Put plainly: In vitro collagen induced platelet aggregation inhibitory activity using human platelet rich plasma anti-coagulated with 0.38% trisodium citrate. It counts as functional.
Conditions: not given
With `CC(C)(C(=O)N1CCC(CC(=O)O)CC1)C(NC(=O)c1ccc(C(=N)N)cc1)c1ccccc1` (single isomer, unassigned; (+)), the concentration for half-maximal inhibition (IC50) stood at 0.092 µM.
For the compound `CC(C)(C(=O)N1CCC(CC(=O)O)CC1)C(NC(=O)c1ccc(C(=N)N)cc1)c1ccccc1` (single isomer, unassigned; (-)), half-maximal inhibition (IC50) was put at 31 µM.
As to `CC(C)(C(=O)N1CCC(CC(=O)O)CC1)C(NC(=O)c1ccc(C(=N)N)cc1)c1ccccc1` (stereo in doubt; 18), inhibition was half-maximal at 0.19 µM (IC50).

The assay is the same for the next values; noted with them: Homo sapiens, Plasma.
For the compound `N=C(N)c1ccc(C(=O)N[C@@H](CC(=O)N2CCC(CC(=O)O)CC2)C(=O)Oc2ccccc2)cc1`, the IC50 amounted to 4.1 µM.
The same measure, in the same setting: next, `C[C@H](NC(=O)c1ccc(NC(=N)N)cc1)C(=O)N1CCC(C(=O)O)CC1`: above 1000 µM; `CC(C)C(CNC(=O)c1ccc(C(=N)N)cc1)C(=O)N1CCC(CC(=O)O)CC1` (stereo not drawn): 25 µM.
`CN(CC(=O)N1CCC(CC(=O)O)CC1)C(=O)c1ccc(NC(=N)N)cc1`: the IC50 came to 750 µM.
On the same count and under the same terms, next, `N=C(N)c1ccc(C(=O)NCC(Cc2ccc(O)cc2)C(=O)N2CCC(CC(=O)O)CC2)cc1` (stereo not drawn): 0.94 µM.
Same read-out and setting: next, `CC(C)(CNC(=O)c1ccc(C(=N)N)cc1)C(=O)N1CCC(CC(=O)O)CC1`: 0.57 µM; `N=C(N)c1ccc(C(=O)N[C@H](CC(=O)N2CCC(CC(=O)O)CC2)c2ccccc2)cc1`: 5.2 µM.
The same measure, in the same setting: with `N=C(N)c1ccc(C(=O)NCCC(=O)N2CCC(OCC(=O)O)CC2)cc1` the figure was 18 µM.
Turning to `C[C@H](NC(=O)c1ccc(C(=N)N)cc1)C(=O)N1CCC(C(=O)O)CC1`, it took 110 µM to reach half-maximal inhibition (IC50).
Still for that read-out and setting: next, `C[C@H](NC(=O)c1ccc(CN=C(N)N)cc1)C(=O)N1CCC(C(=O)O)CC1`: 710 µM.
The same measure, in the same setting: next, `CN(CC(=O)N1CCC(CC(=O)O)CC1)C(=O)c1ccc(CN=C(N)N)cc1`: above 1000 µM.
Still for that read-out and setting: with `N=C(N)c1ccc(C(=O)N2CCCC2CC(=O)N2CCC(CC(=O)O)CC2)cc1` (stereo not drawn) the figure was 4.3 µM; with `CN(CC(=O)N1CCC(C(=O)O)CC1)C(=O)c1ccc(NC(=N)N)cc1`, 100 µM.
In the case of `N=C(N)c1ccc(C(=O)NCCC(=O)N2CCC(C(=O)O)CC2)cc1`, the half-inhibitory concentration (IC50) came out at 33 µM.
For the compound `C[C@@H](CC(=O)N1CCC(CC(=O)O)CC1)NC(=O)c1ccc(C(=N)N)cc1`, the IC50 worked out at 5 µM.
Still for that read-out and setting: with `CN(CCC(=O)N1CCC(CC(=O)O)CC1)C(=O)c1ccc(C(=N)N)cc1` the figure was 6.5 µM; with `N=C(N)c1ccc(C(=O)N2CCCC(C(=O)N3CCC(CC(=O)O)CC3)C2)cc1` (stereo not drawn), 25 µM.
On the same count and under the same terms, next, `CC(C)C(C(=O)N1CCC(CC(=O)O)CC1)C(NC(=O)c1ccc(C(=N)N)cc1)c1ccccc1` (stereo not drawn): 82 µM; `N=C(N)Nc1ccc(C(=O)NCCC(=O)N2CCC(C(=O)O)CC2)cc1`: 750 µM; `CN(CC(=O)N1CCC(C(=O)O)CC1)C(=O)c1ccc(CN=C(N)N)cc1`: 53 µM.
On the same count and under the same terms, next, `N=C(N)c1ccc(C(=O)NCC(Cc2ccccc2)C(=O)N2CCC(CC(=O)O)CC2)cc1` (stereo not drawn): 4.1 µM; `CN(CC(=O)N1CCC(C(=O)O)CC1)C(=O)c1ccc(C(=N)N)cc1`: 330 µM; `N=C(N)NCc1ccc(C(=O)NCCC(=O)N2CCC(C(=O)O)CC2)cc1`: above 1000 µM.
Compound `C[C@H](NC(=O)c1ccc(C(=N)N)cc1)C(=O)N1CCC(CC(=O)O)CC1` showed an IC50 of 30 µM.
On the same count and under the same terms, with `CCC(C(=O)N1CCC(CC(=O)O)CC1)C(NC(=O)c1ccc(C(=N)N)cc1)c1ccccc1` (stereo not drawn) the figure was 16 µM; with `CC(C)[C@@H](CC(=O)N1CCC(CC(=O)O)CC1)NC(=O)c1ccc(C(=N)N)cc1`, 9.2 µM; with `CN(CC(=O)N1CCC(CC(=O)O)CC1)C(=O)c1ccc(C(=N)N)cc1`, 7.5 µM.
On the same count and under the same terms, with `CCCCC(CNC(=O)c1ccc(C(=N)N)cc1)C(=O)N1CCC(CC(=O)O)CC1` (stereo not drawn) the figure was 3.8 µM; with `CC(CNC(=O)c1ccc(C(=N)N)cc1)C(=O)N1CCC(CC(=O)O)CC1` (stereo not drawn), 0.59 µM; with `N=C(N)c1ccc(C(=O)N[C@@H](CC(=O)N2CCC(CC(=O)O)CC2)C(=O)OC2CCCCC2)cc1`, 1.9 µM.
